Laboratory results as given in ChEMBL document CHEMBL2396533, “Γ-aminobutyric acid(C) (GABAC) selective antagonists derived from the bioisosteric modification of 4-aminocyclopent-1-enecarboxylic acid: amides and hydroxamates” (J Med Chem, 2013).
Active and inactive are the calls of the source. The rule behind the calls is not given here.

Key:
[1] = molecular target: T1, GABA-A receptor; alpha-1/beta-2/gamma-2 (Homo sapiens) (UniProt P14867+P47870+P18507); experiment: Agonist activity at human recombinant GABAAalpha1beta2gamma2L receptor expressed in Xenopus laevis assessed as induction of chloride current production at 300 uM after 2 to 5 days by two-electrode voltage-clamp electrophysiological assay relative to GABA
[2] = molecular target: T2, Gamma-aminobutyric acid receptor subunit rho-1 (Homo sapiens, UniProt P24046); experiment: Antagonist activity at human recombinant GABAA rho1 receptor expressed in Xenopus laevis assessed as inhibition of GABA-induced chloride current production after 2 to 5 days by two-electrode voltage-clamp electrophysiological assay
T2 sequence (P24046 whole entry): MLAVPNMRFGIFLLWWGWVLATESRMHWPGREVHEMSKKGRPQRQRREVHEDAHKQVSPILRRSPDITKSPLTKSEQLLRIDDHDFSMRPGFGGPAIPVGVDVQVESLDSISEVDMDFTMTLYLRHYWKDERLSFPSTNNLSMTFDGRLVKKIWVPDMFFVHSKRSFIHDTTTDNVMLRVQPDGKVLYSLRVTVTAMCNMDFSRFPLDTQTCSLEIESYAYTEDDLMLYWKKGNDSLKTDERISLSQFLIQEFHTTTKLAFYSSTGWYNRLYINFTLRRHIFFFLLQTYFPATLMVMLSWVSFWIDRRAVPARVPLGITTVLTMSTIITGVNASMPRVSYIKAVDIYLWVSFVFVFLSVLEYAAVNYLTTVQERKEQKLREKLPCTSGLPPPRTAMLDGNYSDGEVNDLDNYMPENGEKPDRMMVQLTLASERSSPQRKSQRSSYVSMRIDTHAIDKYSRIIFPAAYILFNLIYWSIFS

[3] = molecular target: T1, GABA-A receptor; alpha-1/beta-2/gamma-2 (Homo sapiens); experiment: Antagonist activity at human recombinant GABAAalpha1beta2gamma2L receptor expressed in Xenopus laevis assessed as inhibition of GABA-induced chloride current production at 300 uM after 2 to 5 days by two-electrode voltage-clamp electrophysiological assay relative to control
[4] = molecular target: T2, Gamma-aminobutyric acid receptor subunit rho-1; experiment: Antagonist activity at human recombinant GABAA rho1 receptor expressed in Xenopus laevis assessed as inhibition of GABA-induced chloride current production at 300 uM after 2 to 5 days by two-electrode voltage-clamp electrophysiological assay relative to control

Activity [1]	IC50 [2] [µM]	inhibition [3]	inhibition [4] [%]	Structure (SMILES)
1.7%	115			C=CCONC(=O)C1=CCC(N)C1 (racemic)
	9.6	23.3%		NC(=O)C1=CCC(N)C1 (racemic)
inactive	408	inactive		CNC(=O)C1=CCC(N)C1 (racemic)
inactive	570	inactive		CCCNC(=O)C1=CCC(N)C1 (racemic)
4.3%	12.9			NC1CC=C(C(=O)NO)C1 (racemic)
59.7%	6.6			NC1CC=C(C(=O)O)C1 (racemic)
6.3%	81.5			CONC(=O)C1=CCC(N)C1 (racemic)
2.5%	153			CCONC(=O)C1=CCC(N)C1 (racemic)
inactive		inactive	20.5	CCCCCNC(=O)C1=CCC(N)C1 (racemic)
inactive		inactive	11.3	Cc1ccc(NC(=O)C2=CCC(N)C2)cc1 (racemic)
